Data published in US10703784B2, “Antigens and epitopes derived from Mycobacterium tuberculosis” (priority 2011, dated 2020).
Where “and” joins values, the source holds several entries; their conditions need not be identical. Equal entries are not always repeated. Where two headings read alike, the source gives them in different places.

How the values were obtained:
[1] = test system: PBMCs from LTBI donors (IFN-γ production); assay type: cell-based, human; conditions: for Resp. freq.: fraction of 28 LTBI donors responding to epitopes of the antigen; for Resp. freq. / Total SFC: ex vivo IFN-γ ELISPOT; for Total SFC: total spot-forming cells, LTBI donors
[2] = test system: PBMCs depleted of CD4+ or CD8+ T cells; assay type: cell-based, human
[3] = individual MTB epitope peptide, one value per responding LTBI donor
[4] = phenotype of the responding T cells per donor, n.d. = assay not done

Molecule: AAASWDALAAELASA
- SFC [1, 3]: 217.5 and 130.0 and 440.8
- T cell phenotype [2, 4]: CD4

Molecule: AAGGWDSLAAELATT
- SFC [1, 3]: 130.0 and 31.7
- T cell phenotype [2, 4]: CD4 and undetectable

Molecule: AAIHEMFVNTLQMSS
- SFC [1, 3]: 25.0 and 165.0
- T cell phenotype [2, 4]: CD8

Molecule: AAIHEMFVNTLVASS
- SFC [1, 3]: 41.7 and 160.0 and 26.7 and 61.7
- T cell phenotype [2, 4]: CD8 and undetectable (2×)

Molecule: AALPLLFFALAGQRI
- SFC [1, 3]: 81.7 and 36.7 and 33.3 and 143.3 and 45.0
- T cell phenotype [2, 4]: CD4 (3×) and undetectable (2×)

Molecule: AATQARAAAAAFEAA
- SFC [1, 3]: 25.0
- T cell phenotype [2, 4]: undetectable

Molecule: AAVPAVGAAAGAPAA
- SFC [1, 3]: 203.3 and 28.3 and 20.0 and 30.0
- T cell phenotype [2, 4]: CD4 (2×) and undetectable (2×)

Molecule: ADYLRMWIQAATVMS
- SFC [1, 3]: 375.0 and 35.0 and 128.3 and 48.3 and 26.7 and 75.0
- T cell phenotype [2, 4]: CD4 (5×) and undetectable

Molecule: AEAPAAAAAPEEQVQ
- SFC [1, 3]: 20.0
- T cell phenotype [2, 4]: CD4

Molecule: AELMILIATNLLGQN
- SFC [1, 3]: 33.3 and 90.0
- T cell phenotype [2, 4]: CD4 and undetectable

Molecule: AGCQTYKWETFLTSE
- SFC [1]: 60.0 and 55.8 and 36.7 and 51.7
- T cell phenotype [2]: CD4 and undetectable

Molecule: ALLPRAGAAAAAALP
- SFC [1, 3]: 45.0 and 26.7
- T cell phenotype [2, 4]: CD4

Molecule: ALQSHDDVALVSVMW
- SFC [1, 3]: 28.3 and 61.7
- T cell phenotype [2, 4]: CD4 and undetectable

Molecule: ALSAEYAAVAQELSV
- SFC [1, 3]: 31.7 and 46.7
- T cell phenotype [2, 4]: CD4

Molecule: ALSRVHSMFLGTGGS
- SFC [1, 3]: 71.7 and 43.3
- T cell phenotype [2, 4]: CD4

Molecule: APQINFFYYLGEPIV
- SFC [1, 3]: 20.0
- T cell phenotype [2, 4]: undetectable

Molecule: APYVAWMRATAIQAE
- SFC [1, 3]: 41.7
- T cell phenotype [2, 4]: undetectable

Molecule: AQIYQAVSAQAAAIH
- SFC [1, 3]: 225.0 and 86.7
- T cell phenotype [2, 4]: CD4

Molecule: AQLSQLISLLPSTLQ
- SFC [1, 3]: 50.0 and 51.7 and 23.3
- T cell phenotype [2, 4]: undetectable

Molecule: AQNGVQAMSSLGSSL
- SFC [1, 3]: 46.7
- T cell phenotype [2, 4]: CD4

Molecule: AVLVATNFFGINTIP
- T cell phenotype [2]: CD4 and undetectable

Molecule: AWMSAAAAQAEQAAT
- SFC [1, 3]: 25.0
- T cell phenotype [2, 4]: undetectable

Molecule: AYGSFVRTVSLPVGA
- SFC [1, 3]: 271.7 and 45.0
- T cell phenotype [2, 4]: CD4

Molecule: DPMVQIPRLVANNTR
- SFC [1, 3]: 60.0
- T cell phenotype [2, 4]: undetectable

Molecule: DYVRMWVQAATVMSA
- SFC [1, 3]: 343.3 and 38.3 and 31.7 and 81.7 and 28.3
- T cell phenotype [2, 4]: CD4 (3×) and CD4/CD8 and undetectable

Molecule: EIVQFLEETFAAYDQ
- SFC [1, 3]: 103.3 and 105.0 and 25.0 and 80.0
- T cell phenotype [2, 4]: CD4 (3×) and undetectable

Molecule: ELFVAAYVPYVAWLV
- SFC [1, 3]: 25.0 and 20.0 and 30.0 and 21.7 and 28.3
- T cell phenotype [2, 4]: undetectable

Molecule: GAMVATNFFGINTIP
- T cell phenotype [2]: CD4 and undetectable

B1: Rv1172c: MTB protein, novel CD4 T cell antigen; PE/PPE (protein, listed as Mycobacterium tuberculosis)
chain: MSFVFAAPEALAAAAADMAGIGSTLNAANVVAAVPTTGVLAAAADEVSTQVAALLSAHAQGYQQLSRQMMTAFHDQFVQALRASADAYATAEASAAQTMVNAVNAPARALLGHPLISADASTGGGSNALSRVQSMFLGTGGSSALGGSAAANAAASGALQLQPTGGASGLSAVGALLPRAGAAAAAALPALAAESIGNAIKNLYNAVEPWVQYGFNLTAWAVGWLPYIGILAPQINFFYYLGEPIVQAVLFNAIDFVDGTVTFSQALTNIETATAASINQFINTEINWIRGFLPPLPPISPPGFPSLP
- Resp. freq. [1]: 11%
- Total SFC [1]: 237 SFC

B2: Rv0290: MTB protein, novel CD4 T cell antigen; Cell wall and cell processes, Island 1, Esx-3 (protein, listed as Mycobacterium tuberculosis)
chain: MSGTVMQIVRVAILADSRLTEMALPAELPLREILPAVQRLVVPSAQNGDGGQADSGAAVQLSLAPVGGQPFSLDASLDTVGVVDGDLLVLQPVPAGPAAPGIVEDIADAAMIFSTSRLKPWGIAHIQRGALAAVIAVALLATGLTVTYRVATGVLAGLLAVAGIAVASALAGLLITIRSPRSGIALSIAALVPIGAALALAVPGKFGPAQVLLGAAGVAAWSLIALMIPSAERERVVAFFTAAAVVGASVALAAGAQLLWQLPLLSIGCGLIVAALLVTIQAAQLSALWARFPLPVIPAPGDPTPSAPPLRLLEDLPRRVRVSDAHQSGFIAAAVLLSVLGSVAIAVRPEALSVVGWYLVAATAAAATLRARVWDSAACKAWLLAQPYLVAGVLLVFYTATGRYVAAFGAVLVLAVLMLAWVVVALNPGIASPESYSLPLRRLLGLVAAGLDVSLIPVMAYLVGLFAWVLNR
- Resp. freq. [1]: 29%
- Total SFC [1]: 1552 SFC

B3: Rv0987: MTB protein, novel CD4 T cell antigen; Cell wall and cell processes (protein, listed as Mycobacterium tuberculosis)
chain: MNDQAPVAYAPLWRTAWRRLRQRPFQYILLVLGIALGVAMIVAIDVSSNSAQRAFDLSAAAITGKSTHRLVSGPAGVDQQLYVDLRRHGYDFSAPVIEGYVLARGLGNRAMQFMGTDPFAESAFRSPLWSNQNIAELGGFLTRPNGVVLSRQVAQKYGLAVGDRIALQVKGAPTTVTLVGLLTPADEVSNQKLSDLIIADISTAQELFHMPGRLSHIDLIIKDEATATRIQQRLPAGVRMETSDTQRDTVKQMTDAFTVNLTALSLIALLVGIFLIYNTVTFNVVQRRPFFAILRCLGVTREQLFWLIMTESLVAGLIGTGLGLLIGIWLGEGLIGLVTQTINDFYFVINVRNVSVSAESLLKGLIIGIFAAMLATLPPAIEAMRTVPASTLRRSSLESKITKLMPWLWVAWFGLGSFGVLMLWLPGNNLVVAFVGLFSVLIALALIAPPLTRFVMLRLAPGLGRLLGPIGRMAPRNIVRSLSRTSIAIAALMMAVSLMVGVSISVGSFRQTLANWLEVTLKSDVYVSPPTLTSGRPSGNLPVDAVRNISKWPGVRDAVMARYSSVFAPDWGREVELMAVSGDISDGKRPYRWIDGNKDTLWPRFLAGKGVMLSEPMVSRQHLQMPPRPITLMTDSGPQTFPVLAVFSDYTSDQGVILMDRASYRAHWQDDDVTTMFLFLASGANSGALIDQLQAAFAGREDIVIQSTHSVREASMFIFDRSFTITIALQLVATVVAFIGVLSALMSLELDRAHELGVFRAIGMTTRQLWKLMFIETGLMGGMAGLMALPTGCILAWILVRIINVRSFGWTLQMHFESAHFLRALLVAVVAALAAGMYPAWRLGRMTIRTAIREE
- Resp. freq. [1]: 11%
- Total SFC [1]: 133 SFC

B4: Rv1441c: MTB protein, novel CD4 T cell antigen; PE/PPE (protein, listed as Mycobacterium tuberculosis)
chain: MSNVMVVPGMLSAAAADVASIGAALSAANGAAAPTTAGVLAAGADEVSAAIASLFSGYARDYQALSAQMARFHQQFVQALTASVGSYAAAEAANASPLQALEQQVLAAINAPTQTLLGRPLIGNGADGLPGQNGGAGGLLWGNGGNGGAGDAAHPNGGNGGDAGMFGNGGAGGAGYSPAAGTGAAGGAGGAGGAGGWLSGNGGAGGNGGTGASGADGGGGLPPVPASPGGNGGGGDAGGAAGMFGTGGAGGTGGDGGAGGAGDSPNSGANGARGGDGGNGAAGGAGGRLFGNGGAGGNGGTAGQGGDGGTALGAGGIGGDGGTGGAGGTGGTAGIGGSSAGAGGAGGDGGAGGTGGGSSMIGGKGGTGGNGGVGGTGGASALTIGNGSSAGAGGAGGAGGTGGTGGYIESLDGKGQAGNGGNGGNGAAGGAGGGGTGAGGNGGAGGNGGDGGPSQGGGNPGFGGDGGTGGPGGVGVPDGIGGANGAQGKHG
- Resp. freq. [1]: 11%
- Total SFC [1]: 86 SFC

B5: Rv1366: MTB protein, novel CD4 T cell antigen; Conserved hypotheticals (protein, listed as Mycobacterium tuberculosis)
chain: MVVALVGSAIVDLHSRPPWSNNAVRRLGVALRDGVDPPVDCPSYAEVMLWHADLAAEVQDRIEGRSWSASELLVTSRAKSQDTLLAKLRRRPYLQLNTIQDIAGVRIDADLLLGEQTRLAREIADHFGADQPAIHDLRDHPHAGYRAVHVWLRLPAGRVEIQIRTILQSLWANFYELLADAYGRGIRYDERPEQLAAGVVPAQLQELVGVMQDASADLAMHEAEWQHCAEIEYPGQRAMALGEASKNKATVLATTKFRLERAINEAESAGGGG
- Resp. freq. [1]: 11%
- Total SFC [1]: 308 SFC

B6: Rv1317c: MTB protein, novel CD4 T cell antigen; Information pathways (protein, listed as Mycobacterium tuberculosis)
chain: MHDDFERCYRAIQSKDARFDGWFVVAVLTTGVYCRPSCPVRPPFARNVRFLPTAAAAQGEGFRACKRCRPDASPGSPEWNVRSDVVARAMRLIADGTVDRDGVSGLAAQLGYTIRQLERLLQAVVGAGPLALARAQRMQTARVLIETTNLPFGDVAFAAGFSSIRQFNDTVRLACDGTPTALRARAAARFESATASAGTVSLRLPVRAPFAFEGVFGHLAATAVPGCEEVRDGAYRRTLRLPWGNGIVSLTPAPDHVRCLLVLDDFRDLMTATARCRRLLDLDADPEAIVEALGADPDLRAVVGKAPGQRIPRTVDEAEFAVRAVLAQQVSTKAASTHAGRLVAAYGRPVHDRHGALTHTFPSIEQLAEIDPGHLAVPKARQRTINALVASLADKSLVLDAGCDWQRARGQLLALPGVGPWTAEVIAMRGLGDPDAFPASDLGLRLAAKKLGLPAQRRALTVHSARWRPWRSYATQHLWTTLEHPVNQWPPQEKIA
- Resp. freq. [1]: 11%
- Total SFC [1]: 97 SFC

B7: Rv2490c: MTB protein, novel CD4 T cell antigen; PE/PPE (protein, listed as Mycobacterium tuberculosis)
chain: MQSMSFDPAVADIGSQVVNNAFQGLQAGAVAWVSLSSLLPAGAEEVSAWAVTAFTTAATGLLALNQAAQEELRKAGEVFTAIARMYSDADVRAAACLLEAIPRPGQTLARE
- Resp. freq. [1]: 11%
- Total SFC [1]: 64 SFC

B8: Rv3024c: MTB protein, novel CD4 T cell antigen; Information pathways, Island 2 (protein, listed as Mycobacterium tuberculosis)
chain: MKVLAAMSGGVDSSVAAARMVDAGHEVVGVHMALSTAPGTLRTGSRGCCSKEDAADARRVADVLGIPFYVWDFAEKFKEDVINDFVSSYARGETPNPCVRCNQQIKFAALSARAVALGFDTVATGHYARLSGGRLRRAVDRDKDQSYVLAVLTAQQLRHAAFPIGDTPKRQIRAEAARRGLAVANKPDSHDICFIPSGNTKAFLGERIGVRRGVVVDADGVVLASHDGVHGFTIGQRRGLGIAGPGPNGRPRYVTAIDADTATVHVGDVTDLDVQTLTGRAPVFTAGAAPSGPVDCVVQVRAHGETVSAVAELIGDALFVQLHAPLRGVARGQTLVLYRPDPAGDEVLGSATIAGASGLSTGGNPGA
- Resp. freq. [1]: 32%
- Total SFC [1]: 1630 SFC
